Data published in patent US20230181703A1, “COMPOSITION COMPRISING PEPSTATIN AND ALGINIC ACID OR A SALT THEREOF, AND USE THEREOF” (DRUGS MINERALS AND GENERICS ITALIA S.R.L. IN FORMA …, priority 2020, published 2023).
≈ marks a conversion by molar mass, not a printed value. Where a SMILES comes first, the peptide text is derived from it. [ ]: non-standard residue; d: D form. The star is where a group is joined. Sta = CC(C)C[C@H](N)[C@@H](O)CC(=O)O; Isovaleryl = CC(C)CC(=O)*

How the values were obtained:
physchem = settings: Solubility in ethanol (EtOH)
pepsin = target: T1, pepsin (Sus scrofa, UniProt P00791); assay: Enzymatic activity of pepsin (adapted Anson method, denatured haemoglobin substrate, absorbance at 280 nm); type: biochemical; settings: for ΔAX at 280 nm: inhibitor 0.01% (suspension in H2O)
T1 construct: purchased BDH
Experimental: The method used to measure the enzymatic activity of pepsin alone or together with the inhibitory substance (pepstatin), consists of an adaptation of the Anson method [Anson et al, J. Gen. Physiol. 1931, 16, 59] which provides for the use of denatured haemoglobin as substrate. The enzymatic activity was determined after precipitation with trichloroacetic acid of the non-hydrolysed substrate. The activity of the enzyme was determined spectrophotometrically from the concentration of soluble peptides released by the proteolytic action.
T=37° C., pH=1,5, Anm, optical path 1 cm, reaction time 10 minutes. At pH=1.5, in which the experiments were conducted, there is a maximum activity of pepsin.
Haemoglobin 2%, pepsin 0,02%, inhibitor 0.01%.
Substrate: 250 mg of human haemoglobin are weighed in a 10 mL flask, it is brought up to volume with distilled water and left under stirring for 10 minutes in a water bath at 37° C. to obtain a solution 2.5%. The solution is passed through a filter paper to eliminate insoluble residues. 8 mL of the filtrate are taken and the volume is brought up to 10 mL with acidic water so as to have a final pH finale of 1.5 and a solution 2% (w/V).
Enzyme: 5 mg of pepsin are weighed in a 5 mL flask and it is brought up to volume with acidic water (pH=1.5).
Enzyme together with inhibitory substance: 5 mg of pepsin are weighed in a 5 mL flask. 0.5 mg/mL of a solution or suspension at pH=1.5 of the inhibitory substance are prepared separately (checking the pH with a pH meter and correcting it, if necessary, with hydrochloric acid 12 M in an amount such not to change the total volume). […]
0.25 mL of substrate (haemoglobin) are pipetted in a suitable vial and almost entirely submerged in a water bath thermostated at 37° C. It is left under magnetic stirring for 10 minutes at 37° C. 50 microlitres of the enzyme solution (pepsin) or of the enzyme together with the inhibitory substance (pepsin+pepstatin A) are then added and the system is kept under incubation for exactly 10 minutes. 0.5 mL of the trichloroacetic acid solution 5% are added after this period of time and then left for another 5 minutes. Exactly 3 mL of distilled water at pH=1.5 are added into the vial using a graduated pipette; the solution is stirred and filtered using a 0.45 μm syringe filter. An absorption spectrum (with absorbance (A) always below 1) with wavelengths comprised between 300 nm and 250 nm is recorded using a spectrophotometer using the absorbance value at 280 nm as reference.
Blank: 0.25 mL of substrate (haemoglobin) are pipetted in a suitable vial and almost entirely submerged in a water bath thermostated at 37° C. It is left under magnetic stirring for 10 minutes. 50 microlitres 0.5 mg/mL of the inhibitory substance solution (without enzyme) are then added and the system is kept under incubation for exactly 10 minutes. 0.5 mL of the trichloroacetic acid solution 5% are added after this period of time and then left for another 5 minutes.
50 microlitres of solution 1 mg/mL of enzyme without inhibitory substance are the introduced. Exactly 3 mL of distilled water at pH=1.5 are added into the vial using a graduated pipette, then the solution is stirred and filtered using a 0.45 μm syringe filter. An absorbance with wavelengths comprised between 300 nm and 250 nm is recorded using a spectrophotometer using the absorbance value at 280 nm as reference.
Each experiment was repeated at least twice. The final absorbance value (A) at 280 nm was the mean of the absorbance values obtained (with an uncertainty on the values always much lower than 10%). A ΔA, with ΔAx=A280sample substanceX−A280blank substance X and ΔAo=A280sample free pepsin−A280blank free pepsin in the event of absence of the inhibitory substance are associated with the pepsin-inhibiting substance. […]

T1 sequence (P00791 60-385): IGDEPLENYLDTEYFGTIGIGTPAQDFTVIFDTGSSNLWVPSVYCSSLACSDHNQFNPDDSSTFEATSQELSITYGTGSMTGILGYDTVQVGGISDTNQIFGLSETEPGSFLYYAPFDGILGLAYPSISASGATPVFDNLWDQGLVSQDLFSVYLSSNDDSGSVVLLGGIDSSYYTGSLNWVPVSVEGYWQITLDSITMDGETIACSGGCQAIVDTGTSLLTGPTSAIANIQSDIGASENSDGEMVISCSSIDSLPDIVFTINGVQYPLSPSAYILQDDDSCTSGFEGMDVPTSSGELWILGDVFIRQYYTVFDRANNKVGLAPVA

solubility (physchem): 1000 µg/mL (≈ 1460 µM)
ΔAX at 280 nm (pepsin; pepsin 0.02%, haemoglobin 2%, pH 1.5, 37° C., 10 minutes): 0
ΔAX at 280 nm (pepsin; pepsin 0.02%, haemoglobin 2%, pH 1.5, 37° C., 10 minutes, listed as Pepstatin): 0
ΔAX at 280 nm (pepsin; pepsin 0.02%, haemoglobin 2%, pH 1.5, 37° C., 10 minutes, listed as pepstatin): 0.004
Residual activity with respect to the maximum activity measured (pepsin; inhibitor 0.01%, pepsin 0.02%, haemoglobin 2%, pH 1.5, 37° C., 10 minutes): 0%
Activity of pepsin in the presence of pepstatin 1 μM (pepsin; pepstatin 1 μM diluted in H2O after dissolution in EtOH 1 mg/mL, added to haemoglobin 2% before pepsin, pH 1.5, 10 min (FIG. 3)): total abatement in the activity
Binding between the enzyme and the inhibitor (kinetics study) (pepsin; pepstatin 1 μM in haemoglobin 2%, time scale of the experiment t=10 minutes): immediate binding
Concentrations at which pepsin is inhibited / totally deactivated (pepsin; statement in Conclusions, no picomolar test described): picomolar concentrations
Compound: CC(C)CC(=O)N[C@H](C(=O)N[C@H](C(=O)N[C@@H](CC(C)C)[C@@H](O)CC(=O)N[C@@H](C)C(=O)N[C@@H](CC(C)C)[C@@H](O)CC(=O)O)C(C)C)C(C)C [PEPSTATIN, Isovaleryl-L-val-L-val-statyl-L-alanyl-statin] (Isovaleryl-VV[Sta]A[Sta]-OH)
